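Grown in 96-well plates, cells were treated for 48 hours with each compound at five concentrations. Insufficient inhibition: endpoint recorded as highest concentration tested. GI50 is the concentration that inhibits growth by half.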 The source made the active and inactive calls. Cut-off read from the data, not from the text of the source: active = GI50 up to about 1.1 µM and inactive = higher. Where a SMILES comes first, the peptide text is derived from it. The star is where a group is joined. Boc = CC(C)(C)OC(=O)*
What was measured:
Assay in all cases: NCI anticancer screen, dose series, 48 h
OVCAR-8 = system: OVCAR-8
MDA-MB-231 = system: MDA-MB-231
CAKI-1 = system: CAKI-1
SNB-19 = system: SNB-19
HCC 2998 = system: HCC 2998
T47D = system: T47D
MCF7 = system: MCF7
MDA-N = system: MDA-N
786-0 = system: 786-0
COLO 205 = system: COLO 205
RXF 393 = system: RXF 393
EKVX = system: EKVX
PC-3 = system: PC-3
OVCAR-5 = system: OVCAR-5
Hs-578T = system: Hs-578T
HL-60 = system: HL-60
MDA-MB-435 = system: MDA-MB-435
OVCAR-4 = system: OVCAR-4
CCRF-CEM = system: CCRF-CEM

Row | SMILES | GI50 (OVCAR-8) | GI50 (MDA-MB-231) | GI50 (CAKI-1) | GI50 (SNB-19) | GI50 (HCC 2998) | GI50 (T47D) | GI50 (MCF7) | GI50 (MDA-N) | GI50 (786-0) | GI50 (COLO 205) | GI50 (RXF 393) | GI50 (EKVX) | GI50 (PC-3) | GI50 (OVCAR-5) | GI50 (Hs-578T) | GI50 (HL-60) | GI50 (MDA-MB-435) | GI50 (OVCAR-4) | GI50 (CCRF-CEM)
1 | CC#CC(O)(C(=O)OC1CCC2CCC1N2C)C1CCCC1 (configuration not stated) | > 100 µM (inactive) | > 100 µM (inactive) | > 100 µM (inactive) | > 100 µM (inactive) | > 100 µM (inactive) | > 100 µM (inactive) | > 100 µM (inactive) | > 100 µM (inactive) | > 100 µM (inactive) | > 100 µM (inactive) | > 100 µM (inactive) | > 100 µM (inactive) | > 100 µM (inactive) | > 10 µM (inactive) |  |  |  |  | 
2 | CCCCCCN(CCCCCC)CCC(=O)c1ccc2cc(Br)c3ccccc3c2c1 | 31.7 µM (inactive) | 26.7 µM (inactive) | 66.7 µM (inactive) | 44.3 µM (inactive) | 41.3 µM (inactive) | 23.3 µM (inactive) | 20.2 µM (inactive) |  | 24.9 µM (inactive) | 22.6 µM (inactive) | 20.7 µM (inactive) | > 100 µM (inactive) | 31.3 µM (inactive) | 78 µM (inactive) | 33.3 µM (inactive) | 10.8 µM (inactive) | 26.1 µM (inactive) |  | 
3 | O=C(/C(=N/Nc1cn[nH]c(=O)c1Cl)c1ccccc1)c1ccccc1 | 36.1 µM (inactive) | 24.7 µM (inactive) | 19.7 µM (inactive) | 91.6 µM (inactive) | 26.9 µM (inactive) | 28.4 µM (inactive) | 45.8 µM (inactive) | 4.99 µM (inactive) | 16 µM (inactive) | 20.3 µM (inactive) | 0.326 µM (active) | 24 µM (inactive) | 27.5 µM (inactive) |  |  | 16.8 µM (inactive) | 5.11 µM (inactive) | 41.7 µM (inactive) | 32.4 µM (inactive)
4 | CC1CC2C(=O)N(c3ccccc3)C(=O)C2c2c1c1ccccc1n2Cc1ccccc1 (configuration not stated) | > 100 µM (inactive) |  | > 100 µM (inactive) |  |  |  |  |  | > 100 µM (inactive) | 49.8 µM (inactive) |  | > 100 µM (inactive) |  | > 100 µM (inactive) |  | 10.5 µM (inactive) |  | > 100 µM (inactive) | > 100 µM (inactive)
5 | CCCCCCCCCCCC(=O)OCC1OC(n2cc(F)c(=O)[nH]c2=O)C(N)C(OC(=O)CCCCCCCCCCC)C1O (configuration not stated) | 93.1 µM (inactive) |  | > 100 µM (inactive) | > 100 µM (inactive) | 45.3 µM (inactive) |  |  |  | > 100 µM (inactive) | 68.4 µM (inactive) | > 100 µM (inactive) | > 100 µM (inactive) |  |  |  | 29.6 µM (inactive) |  | 37.3 µM (inactive) | 37.2 µM (inactive)
6 | COC(=O)c1nc(N)nc(O)c1-c1ccc(Cl)cc1 | > 100 µM (inactive) |  | > 100 µM (inactive) | > 100 µM (inactive) | > 100 µM (inactive) |  |  |  | > 100 µM (inactive) | > 100 µM (inactive) | > 100 µM (inactive) | > 100 µM (inactive) |  | > 100 µM (inactive) |  | > 100 µM (inactive) |  | > 100 µM (inactive) | > 100 µM (inactive)
7 | CN(NC1=NCCO1)c1ccc2ccccc2c1 | 47.3 µM (inactive) | 26.3 µM (inactive) | 32.9 µM (inactive) | 54.7 µM (inactive) | 38.8 µM (inactive) | 62.5 µM (inactive) | 48.6 µM (inactive) |  | 54.6 µM (inactive) | 41.1 µM (inactive) | 38.6 µM (inactive) | 39.5 µM (inactive) | 40.3 µM (inactive) | 80 µM (inactive) | 35.2 µM (inactive) | 26.9 µM (inactive) | 34.5 µM (inactive) | 42 µM (inactive) | 17.2 µM (inactive)
8 | CCOC(=O)N1CCC(=O)C(CNC23CC4CC(CC(C4)C2)C3)C1 (configuration not stated) | 21.2 µM (inactive) |  | > 10 µM (inactive) | > 100 µM (inactive) |  |  |  |  | 15.6 µM (inactive) | 37.4 µM (inactive) | 17.2 µM (inactive) | > 100 µM (inactive) |  | > 100 µM (inactive) |  | 22.2 µM (inactive) |  | 15.1 µM (inactive) | 16.9 µM (inactive)
9 | CN(CC(=O)O)c1ncc2c(n1)-c1ccccc1CC2 | > 100 µM (inactive) | > 100 µM (inactive) | > 100 µM (inactive) | > 100 µM (inactive) |  |  | > 100 µM (inactive) | > 100 µM (inactive) | > 100 µM (inactive) | > 100 µM (inactive) | > 100 µM (inactive) | > 100 µM (inactive) | > 100 µM (inactive) | > 100 µM (inactive) | > 100 µM (inactive) | > 100 µM (inactive) | > 100 µM (inactive) | > 100 µM (inactive) | > 100 µM (inactive)
10 | CC(=O)OCC1OC(n2nc(Cc3ccccc3)c(=S)[nH]c2=S)C(OC(C)=O)C(OC(C)=O)C1OC(C)=O (configuration not stated) | 23.6 µM (inactive) | 14.7 µM (inactive) | 30.7 µM (inactive) | 27.7 µM (inactive) |  | 24.3 µM (inactive) | 27.7 µM (inactive) |  | 35.2 µM (inactive) | 89.7 µM (inactive) | 22.9 µM (inactive) |  | 41.1 µM (inactive) | > 100 µM (inactive) | 20.2 µM (inactive) | 0.583 µM (active) | 18.1 µM (inactive) | 21.3 µM (inactive) | 
11 | COc1ccc(C2=Nn3c(nnc(Cc4ccc(Cl)cc4)c3=O)SC2)cc1 | 93.1 µM (inactive) | 60.3 µM (inactive) | 38.7 µM (inactive) | 53.2 µM (inactive) | 55.1 µM (inactive) | 64 µM (inactive) | 27.9 µM (inactive) |  | 45 µM (inactive) | 50.8 µM (inactive) | 27.7 µM (inactive) | 52.2 µM (inactive) | 42.9 µM (inactive) | > 100 µM (inactive) | 63.5 µM (inactive) | 32.8 µM (inactive) | 10.4 µM (inactive) | 42.9 µM (inactive) | 38.3 µM (inactive)
12 | NNC(=O)Nc1cccnc1 | > 100 µM (inactive) | > 100 µM (inactive) | > 100 µM (inactive) | > 100 µM (inactive) | > 100 µM (inactive) | > 100 µM (inactive) | > 100 µM (inactive) | > 100 µM (inactive) | > 100 µM (inactive) | > 100 µM (inactive) | > 100 µM (inactive) | > 100 µM (inactive) | > 100 µM (inactive) | > 100 µM (inactive) |  | > 100 µM (inactive) | > 100 µM (inactive) | > 100 µM (inactive) | > 100 µM (inactive)
13 | C/C(=N\NC(=O)CC#N)C(CN1CCCCC1)C(c1ccccc1)c1c(O)c2ccccc2oc1=O (configuration not stated) | 63.5 µM (inactive) | 35.5 µM (inactive) | 64.7 µM (inactive) | 80.4 µM (inactive) | 55.7 µM (inactive) |  | 17.3 µM (inactive) | 49.8 µM (inactive) | 78 µM (inactive) | 18.6 µM (inactive) |  | > 100 µM (inactive) | 58.3 µM (inactive) | > 100 µM (inactive) | 50.6 µM (inactive) | 27.2 µM (inactive) | 53.2 µM (inactive) | 52.1 µM (inactive) | 26.2 µM (inactive)
14 | CCOC(=O)c1cn(-c2ccc(Cl)cc2)c(=O)n2c1nc1ccccc12 | > 100 µM (inactive) | > 100 µM (inactive) | > 100 µM (inactive) | > 100 µM (inactive) | > 100 µM (inactive) | > 100 µM (inactive) | > 100 µM (inactive) |  | > 100 µM (inactive) | > 100 µM (inactive) | > 100 µM (inactive) | > 100 µM (inactive) | > 100 µM (inactive) | > 100 µM (inactive) |  |  | > 100 µM (inactive) | > 100 µM (inactive) | > 100 µM (inactive)
15 | CN1C(=O)c2c(c3c4ccccc4n(C4OC(CO)C(O)C(O)C4O)c3c3[nH]c4ccccc4c23)C1=O (configuration not stated) | 1.42 µM (inactive) | 1.51 µM (inactive) | 1.9 µM (inactive) | 0.849 µM (active) | 2.07 µM (inactive) |  | 5.51 µM (inactive) | 2.14 µM (inactive) | 2.67 µM (inactive) | 0.944 µM (active) | 3.55 µM (inactive) | 3.02 µM (inactive) | 1.92 µM (inactive) | 3.22 µM (inactive) | 4.45 µM (inactive) |  | 2.29 µM (inactive) | 2.37 µM (inactive) | 0.268 µM (active)
16 | CSCCCNC(=O)c1csc(-c2csc(CCNC(=O)CNC(=O)CNC(=O)OC(C)(C)C)n2)n1 | > 100 µM (inactive) | > 100 µM (inactive) | > 100 µM (inactive) | > 100 µM (inactive) | > 100 µM (inactive) |  | > 100 µM (inactive) | > 100 µM (inactive) | > 100 µM (inactive) | > 100 µM (inactive) | > 100 µM (inactive) | > 100 µM (inactive) | > 100 µM (inactive) | > 100 µM (inactive) | > 100 µM (inactive) | > 100 µM (inactive) | > 100 µM (inactive) | > 100 µM (inactive) | > 100 µM (inactive)
17 | COc1cc(CC2CCc3nc(N)nc(N)c3C2)cc(OC)c1OC (configuration not stated) | > 32.7 µM (inactive) |  |  | > 22.9 µM (inactive) | 0.621 µM (active) | 21.6 µM (inactive) | 0.527 µM (active) |  | 0.0536 µM (active) | 1.6 µM (inactive) | 0.0422 µM (active) | 0.701 µM (active) | 0.13 µM (active) | 1.36 µM (inactive) | > 60.5 µM (inactive) | 0.1 µM (active) | 4.24 µM (inactive) | > 45.6 µM (inactive) | 
18 | CC(C)(C)OC(=O)NCC(=O)NCC(=O)NCC(=O)NCC(=O)O (Boc-GGGG-OH) | > 100 µM (inactive) | > 100 µM (inactive) | > 100 µM (inactive) | > 100 µM (inactive) | > 100 µM (inactive) | > 100 µM (inactive) | > 100 µM (inactive) |  | > 100 µM (inactive) | > 100 µM (inactive) | > 100 µM (inactive) | > 100 µM (inactive) | > 100 µM (inactive) | > 100 µM (inactive) | 66.1 µM (inactive) | > 100 µM (inactive) | > 100 µM (inactive) | > 100 µM (inactive) | > 100 µM (inactive)

— ChEMBL document CHEMBL1201862, “PubChem BioAssay data set” (2004)
